Test results published in patent EP1388586A2, “Identification of broadly reactive DR restricted epitopes” (priority 1998, dated 1999).
Like-named read-outs stand apart in the source and are kept apart here. Square brackets hold non-standard residues; d marks the D form. Ends that are not written are not given here. Peptide text beside a SMILES is read from it.

Tests used:
DRB1*1101 (DR5w11) = biological target: T1, DRB1*1101 (DR5w11) (Homo sapiens, UniProt P01903+P01911, A100R/A169T/A87E/I96F/K41T/L162R/M171V/P40S/Q125H/Q178H/Q39Y/Q99D/R42S/S66Y/T262R/V115G/W38E); assay: Class II peptide-binding assay, DR5w11;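 note: competition by unlabeled test peptide against iodinated probe peptide binding to affinity-purified HLA-DR, class II amount titrated beforehand, half-maximal inhibitory concentration read as approximate Kd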
T1 construct: used as sources of human HLA class II molecules; endogenous in cells; host or cells: SWEIG (EBV-transformed homozygous B cell line)
T1 sequence (P01903 26-254, other chains not shown): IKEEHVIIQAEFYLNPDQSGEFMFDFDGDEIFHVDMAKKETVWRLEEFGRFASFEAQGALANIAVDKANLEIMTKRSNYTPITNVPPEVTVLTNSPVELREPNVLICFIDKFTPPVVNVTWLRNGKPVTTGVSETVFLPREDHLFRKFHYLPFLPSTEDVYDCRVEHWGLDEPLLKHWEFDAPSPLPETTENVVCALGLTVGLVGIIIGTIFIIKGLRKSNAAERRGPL

DRB5*0101 (DR2w2a) = biological target: T2, DRB5*0101 (DR2w2a) (Homo sapiens, UniProt P01903+Q30154); assay: Class II peptide-binding assay, DR2w2a (DR2w2B2);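 note: competitive binding assay: unlabeled peptide inhibiting binding of a radiolabeled probe peptide to purified DR molecules at pH 7.0, IC50 approximating Kd, lower means stronger binding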
T2 construct: used as sources of human HLA class II molecules; endogenous in cells; host or cells: GM3107 (EBV-transformed homozygous B cell line)
Protocol: (§1) Class II peptide-binding assays. […] These assays were chosen as to be representative of the most common DR alleles.
Radiolabeled peptides were iodinated using the chloramine-T method. […] In appropriate stoichiometric conditions, the IC50 of an unlabeled test peptide to the purified DR is a reasonable approximation of the affinity of interaction (Kd). Peptides were tested in two to four completely independent experiments. […] Final detergent concentration in the incubation mixture was 0.05% Nonidet P-40. Assays were performed at pH 7.0 with the exception of DR3, which was performed at pH 4.5, and DRw53, which was performed at pH 5.0.
(§2) All subsequent inhibition and direct binding assays were the performed using these class II concentrations.

DRB1*0701 (DR7) = DRB1*0701 (DR7) (Homo sapiens, UniProt P01903+P01911, A100R/A102G/A103Q/D57E/D86V/E43K/F76Y/K127E/L162R/M171V/P40G/Q125H/Q99D/R33Q/R42Y/R54Q/S133A/S66F/T210M/V115G/Y107V/Y59L/Y89S); assay: Class II peptide-binding assay, DR7;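 note: unlabeled peptides compete with an iodinated probe peptide for binding to affinity-purified HLA-DR at neutral pH, DR amount titered to bind a small tracer fraction, IC50 approximating Kd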
DRB1*0101 (DR1) = biological target: T3, DRB1*0101 (DR1) (Homo sapiens, UniProt P01903+P01911, A100R/D57E/F55L/F60I/F76Y/I96L/L162R/M171V/P40L/Q125E/R42F/V115G/Y59C); assay: Class II peptide-binding assay, DR1;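 note: competition assay: unlabeled test peptides inhibit binding of a radiolabeled probe peptide to purified DR, with half-maximal inhibition taken as an approximate dissociation constant Kd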
T3 construct: used as sources of human HLA class II molecules; endogenous in cells; host or cells: LG2 (EBV-transformed homozygous B cell line)

DRB1*0401 (DR4w4) = biological target: T4, DRB1*0401 (DR4w4) (Homo sapiens, UniProt P01903+P01911, A100K/A169T/F76Y/I96L/K127E/L162R/M171V/N62H/P40V/Q125Y/R42H/S133A/S149N/S66Y/V115G/V209L/W38E); assay: Class II peptide-binding assay, DR4w4;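 note: unlabeled test peptides compete with a radiolabeled probe peptide for binding to affinity-purified HLA-DR, with DR amount titrated to capture a small fraction of label, IC50 approximating Kd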
T4 construct: used as sources of human HLA class II molecules; endogenous in cells; host or cells: PREISS (EBV-transformed homozygous B cell line)

DRB10404 (DR4w14) = biological target: T5, DRB10404 (DR4w14) (Homo sapiens, UniProt P01903+P01911, A100R/A169T/F76Y/I96L/K127E/L162R/M171V/N62H/P40V/Q125Y/R42H/S133A/S149N/S66Y/V209L/W38E); assay: Class II peptide-binding assay, DR4w14;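 note: unlabeled peptides compete with a radiolabeled probe for binding to affinity-purified HLA-DR, neutral pH, class II amount titrated to bind a small fraction of label, IC50 approximates Kd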
T5 construct: used as sources of human HLA class II molecules; endogenous in cells; host or cells: BIN40 (EBV-transformed homozygous B cell line)
Protocol: as §1
In appropriate stoichiometric conditions, the IC50 of an unlabeled test peptide to the purified DR is a reasonable approximation of the affinity of interaction (Kd). Peptides were tested in two to four completely independent experiments. […] Final detergent concentration in the incubation mixture was 0.05% Nonidet P-40. Assays were performed at pH 7.0 with the exception of DR3, which was performed at pH 4.5, and DRw53, which was performed at pH 5.0.
as §2

[1] = read-out: DR5w11 nM (In IC50 Format), purified HLA DR5w11
[2] = read-out: DR2w2B2 nM (In IC50 Format), purified HLA DR2w2β2
[3] = read-out: DR7 nM (In IC50 Format), purified HLA DR7
[4] = read-out: DR1 nM (In IC50 Format), purified HLA DR1
[5] = read-out: DR4w4 nM (In IC50 Format), purified HLA DR4w4
[6] = read-out: DR4w14 nM (In IC50 Format), purified HLA DR4w14
[7] = read-out: DR5w11 nM, Table VIII, In IC50 Format
[8] = read-out: DR2w2B2 nM, Table VIII, In IC50 Format
[9] = read-out: DR1 nM, Table VIII, In IC50 Format
[10] = read-out: DR4w4 nM, Table VIII, In IC50 Format

| Compound | IC50 (DRB1*1101 (DR5w11); [1]) [nM] | IC50 (DRB5*0101 (DR2w2a); [2]) [nM] | IC50 (DRB1*0701 (DR7); [3]) [nM] | IC50 (DRB1*0101 (DR1); [4]) [nM] | IC50 (DRB1*0401 (DR4w4); [5]) [nM] | IC50 (DRB10404 (DR4w14); [6]) [nM] | further results |
| --- | --- | --- | --- | --- | --- | --- | --- |
| ASQKRPSQRSKYLATAST [Peptide 765.011] | 4440 | 2500 | 961 | 313 | 321 |  |  |
| CC[C@H](C)[C@H](NC(=O)[C@@H](NC(=O)[C@H](CC(C)C)NC(=O)[C@@H](NC(=O)[C@@H]1CCCN1C(=O)[C@H](CCCNC(=N)N)NC(=O)[C@@H](N)CCCNC(=N)N)[C@@H](C)CC)[C@@H](C)O)C(=O)N[C@H](C(=O)N[C@H](C(=O)N[C@@H](CC(C)C)C(=O)N[C@@H](CCC(=O)O)C(=O)N[C@@H](CC(=O)O)C(=O)N[C@@H](CO)C(=O)N[C@@H](CO)C(=O)NCC(=O)O)[C@@H](C)O)[C@@H](C)CC [Peptide 39.0310] |  |  |  |  |  |  | IC50 (DRB1*0701 (DR7); read-out: In IC50 Format DR7 nM, Table VIII, page 2): 10900 nM |
| INSWVESQTNGIIR [Peptide 608.02] |  |  |  |  |  |  | IC50 (DRB5*0101 (DR2w2a); read-out: In IC50 Format DR2w2β2, Table VIII): > 10000 nM; IC50 (DRB1*0701 (DR7); read-out: In IC50 Format DR7, Table VIII): 14.7 nM; IC50 (DRB10404 (DR4w14); read-out: In IC50 Format DR4w14, Table VIII): 16700 nM; IC50 (DRB1*0101 (DR1); read-out: In IC50 Format DR1, Table VIII): 556 nM; IC50 (DRB1*0401 (DR4w4); read-out: In IC50 Format DR4w4, Table VIII): 375 nM |
| YARFQSQTTLKAET-NH2 [Peptide 717.26] |  |  | 4170 | 35.7 | 18 | 20 |  |
| CC(C)C[C@H](NC(=O)[C@@H](NC(=O)[C@@H](NC(=O)[C@H](CCC(N)=O)NC(=O)[C@H](CO)NC(=O)[C@H](CCC(N)=O)NC(=O)[C@H](Cc1ccccc1)NC(=O)[C@H](CCCNC(=N)N)NC(=O)[C@H](C)NC(=O)[C@H](N)Cc1ccc(O)cc1)[C@@H](C)O)[C@@H](C)O)C(=O)N[C@@H](CCCCN)C(=O)N[C@@H](C)C(=O)N[C@@H](CCCCN)C(=O)N[C@@H](C(N)=O)[C@H](C)O [Peptide 858.06] (H-[dY]ARFQSQTTLKAK[dT]-NH2) |  |  |  |  |  |  | IC50 (DRB1*1101 (DR5w11); [7]): 18.2 nM; IC50 (DRB5*0101 (DR2w2a); [8]): 64 nM; IC50 (DRB1*0101 (DR1); [9]): 4.5 nM; IC50 (DRB1*0401 (DR4w4); [10]): 5 nM |
| CC(C)C[C@H](NC(=O)[C@@H](NC(=O)[C@@H](NC(=O)[C@H](CCC(N)=O)NC(=O)[C@H](CCCCN)NC(=O)[C@H](CC(=O)O)NC(=O)[C@H](Cc1ccccc1)NC(=O)[C@@H](CCCNC(=N)N)NC(=O)[C@H](C)NC(=O)[C@H](N)Cc1ccc(O)cc1)[C@@H](C)O)[C@@H](C)O)C(=O)N[C@@H](CCCCN)C(=O)N[C@@H](C)C(=O)N[C@@H](C)C(=O)N[C@H](C)C(=O)O [Peptide 781.19] (H-[dY]A[dR]FDKQTTLKAA[dA]-OH) | 47.5 | 3330 |  | 60.2 | 8.1 | 96.6 |  |
| YARFQSQTTLEAKT-NH2 [Peptide 717.22] | 29.4 | 870 | 2780 | 7.9 | 11.8 |  |  |
| CC(C)C[C@H](NC(=O)[C@@H](NC(=O)[C@@H](NC(=O)[C@H](CCC(N)=O)NC(=O)[C@H](CCCNC(=N)N)NC(=O)[C@H](CCC(N)=O)NC(=O)[C@@H](N)Cc1ccccc1)[C@@H](C)O)[C@@H](C)O)C(=O)N[C@@H](CCCCN)C(=O)N[C@@H](C)C(=O)N[C@@H](C)C(=O)N[C@H](C)C(N)=O [Peptide 781.06] (H-FQRQTTLKAA[dA]-NH2) |  |  |  | 19.2 | 2.4 | 13.9 |  |
| QPDVRPQPPSPREGP [Peptide 39.0280] |  |  |  |  |  |  | IC50 (DRB1*0101 (DR1); Table VIII, page 2, read-out: In IC50 Format DR1): 7140 nM |
| CC[C@H](C)[C@H](NC(=O)[C@H](CCSC)NC(=O)[C@H](Cc1c[nH]c2ccccc12)NC(=O)[C@H](CS)NC(=O)[C@H](CCCCN)NC(=O)[C@@H](NC(=O)[C@H](CCSC)NC(=O)[C@@H](NC(=O)[C@H](CCSC)NC(=O)[C@H](Cc1ccc(O)cc1)NC(=O)[C@@H](NC(=O)[C@@H](N)CC(=O)O)C(C)C)[C@@H](C)CC)C(C)C)C(=O)N[C@@H](CC(=O)O)C(=O)N[C@@H](CO)C(=O)N[C@@H](CCC(=O)O)C(=O)O [Peptide 39.0277] |  |  |  |  |  |  | IC50 (DRB1*1101 (DR5w11); Table VIII, page 2, read-out: In IC50 Format DR5w11 nM): 909 nM; IC50 (DRB1*0401 (DR4w4); Table VIII, page 2, read-out: In IC50 Format DR4w4 nM): 790 nM |
| YARFQRQTTLKIAT [Peptide 716.01] |  | 95.2 | 42.7 | 2.9 | 16.7 | 111 |  |
| YARFQSETTEKAKT-NH2 [Peptide 717.07] |  | 5000 |  |  | 64.3 | 806 |  |
| C[C@H](NC(=O)[C@H](C)NC(=O)[C@H](C)NC(=O)[C@H](C)NC(=O)[C@H](Cc1ccc(O)cc1)NC(=O)[C@H](C)NC(=O)[C@@H](C)N)C(=O)N[C@@H](C)C(=O)N[C@@H](C)C(=O)N[C@@H](CCCCN)C(=O)N[C@@H](C)C(=O)N[C@@H](C)C(=O)N[C@H](C)C(N)=O [Peptide 762.01] (H-[dA]AYAAAAAAKAA[dA]-NH2) | 46.8 | 27.4 | 1670 | 1.7 | 7.1 |  |  |
| YARFQFQTTLKAKT-NH2 [Peptide 717.46] | 3.7 | 40 | 4170 | 4.5 |  | 2.6 |  |
| LMAMGITDVFSSSANLSGI [Peptide 705.08] | 2500 |  | 403 | 417 | 14.1 |  |  |
| KSNTATSATQRLANSLVH [Peptide 735.01] | 1330 |  | 12500 | 313 | 441 | 352 |  |
| YARYQSQTTLKAKT-NH2 [Peptide 717.42] | 14.3 | 364 |  | 7.8 | 3.1 | 66.7 |  |
| CC(C)C[C@H](NC(=O)[C@@H](NC(=O)[C@@H](NC(=O)[C@H](CCC(N)=O)NC(=O)[C@H](CCCNC(=N)N)NC(=O)[C@H](CCC(N)=O)NC(=O)[C@H](Cc1ccccc1)NC(=O)[C@H](CCCNC(=N)N)NC(=O)[C@H](C)NC(=O)[C@H](N)Cc1ccc(O)cc1)[C@@H](C)O)[C@@H](C)O)C(=O)N[C@@H](CCCCN)C(=O)N[C@@H](C)C(=O)N[C@@H](C)C(=O)N[C@H](C)C(N)=O [Peptide 781.09] (H-[dY]ARFQRQTTLKAA[dA]-NH2) | 7.4 | 37.7 |  | 2.8 | 2 | 7.4 |  |
| CC(C)C[C@H](NC(=O)[C@@H](NC(=O)[C@@H](NC(=O)[C@H](CCC(N)=O)NC(=O)[C@H](CO)NC(=O)[C@H](CCC(N)=O)NC(=O)[C@H](Cc1ccccc1)NC(=O)[C@H](CCCCN)NC(=O)[C@H](C)NC(=O)[C@H](N)Cc1ccc(O)cc1)[C@@H](C)O)[C@@H](C)O)C(=O)N[C@@H](CCCCN)C(=O)N[C@@H](C)C(=O)N[C@@H](CCCCN)C(=O)N[C@@H](C(N)=O)[C@H](C)O [Peptide 858.02] (H-[dY]AKFQSQTTLKAK[dT]-NH2) |  |  |  |  |  |  | IC50 (DRB1*1101 (DR5w11); [7]): 16.3 nM; IC50 (DRB5*0101 (DR2w2a); [8]): 32.4 nM; IC50 (DRB10404 (DR4w14); read-out: DR4w14 nM, Table VIII, In IC50 Format): 17.9 nM; IC50 (DRB1*0101 (DR1); [9]): 9 nM; IC50 (DRB1*0401 (DR4w4); [10]): 6.4 nM |
| YARFQSQTPLKAKT-NH2 [Peptide 717.37] | 8 | 64.5 |  | 2.5 | 9 | 67.5 |  |
